In PubChem BioAssay (NCI):
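48-hour exposure; five concentrations; linearly interpolated endpoints. Abbreviation: GI50, concentration required for 50% inhibition of growth. At the TGI there is no net growth.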

Legend:
Experiment in all cases: growth of human tumour cells (NCI), 48 h
SNB-19 CNS = system: SNB-19 CNS
SN12C renal = system: SN12C renal
HS 578T breast = system: HS 578T breast
SK-OV-3 ovarian = system: SK-OV-3 ovarian
RPMI-8226 leukemia = system: RPMI-8226 leukemia
SNB-75 CNS = system: SNB-75 CNS
RXF 393 renal = system: RXF 393 renal
IGROV1 ovarian = system: IGROV1 ovarian
SR leukemia = system: SR leukemia
CAKI-1 renal = system: CAKI-1 renal
NCI-H226 lung = system: NCI-H226 lung
786-0 renal = system: 786-0 renal
OVCAR-5 ovarian = system: OVCAR-5 ovarian
HT29 colon = system: HT29 colon
OVCAR-3 ovarian = system: OVCAR-3 ovarian
ACHN renal = system: ACHN renal
A549 NSCLC = system: A549 NSCLC
K-562 leukemia = system: K-562 leukemia
MDA-MB-231 breast = system: MDA-MB-231 breast
NCI-H23 lung = system: NCI-H23 lung
NCI-H460 lung = system: NCI-H460 lung
MCF7 breast = system: MCF7 breast
DU-145 prostate = system: DU-145 prostate
SK-MEL-2 melanoma = system: SK-MEL-2 melanoma
SF-539 CNS = system: SF-539 CNS
UACC-257 melanoma = system: UACC-257 melanoma
SF-268 CNS = system: SF-268 CNS
HCT-15 colon = system: HCT-15 colon
UO-31 renal = system: UO-31 renal
HCC-2998 colon = system: HCC-2998 colon
MALME-3M melanoma = system: MALME-3M melanoma
HCT-116 colon = system: HCT-116 colon
SK-MEL-28 melanoma = system: SK-MEL-28 melanoma
HOP-92 NSCLC = system: HOP-92 NSCLC
M14 melanoma = system: M14 melanoma
U251 CNS = system: U251 CNS
A498 renal = system: A498 renal
NCI/ADR-RES ovarian = system: NCI/ADR-RES ovarian
MDA-MB-435 = system: MDA-MB-435
T-47D breast = system: T-47D breast
KM12 colon = system: KM12 colon
SW-620 colon = system: SW-620 colon
COLO 205 colon = system: COLO 205 colon
OVCAR-4 ovarian = system: OVCAR-4 ovarian
PC-3 prostate = system: PC-3 prostate
CCRF-CEM leukemia = system: CCRF-CEM leukemia
BT-549 breast = system: BT-549 breast
SK-MEL-5 melanoma = system: SK-MEL-5 melanoma
HL-60(TB) leukemia = system: HL-60(TB) leukemia
NCI-H522 lung = system: NCI-H522 lung
OVCAR-8 ovarian = system: OVCAR-8 ovarian
EKVX NSCLC = system: EKVX NSCLC
UACC-62 melanoma = system: UACC-62 melanoma
TK-10 renal = system: TK-10 renal
LOX IMVI melanoma = system: LOX IMVI melanoma
MOLT-4 leukemia = system: MOLT-4 leukemia

COc1ccc(-n2c(N)c(C(=O)NCCN3CCOCC3)c3nc4ccccc4nc32)cc1OC
GI50 (SNB-19 CNS): 10.9 µM
TGI (SNB-19 CNS): > 100 µM
GI50 (SN12C renal): 5.29 µM
TGI (SN12C renal): > 100 µM
GI50 (HS 578T breast): 9.27 µM
TGI (HS 578T breast): > 100 µM
GI50 (SK-OV-3 ovarian): 85.5 µM
TGI (SK-OV-3 ovarian): > 100 µM
GI50 (RPMI-8226 leukemia): 3.36 µM
TGI (RPMI-8226 leukemia): > 100 µM
GI50 (SNB-75 CNS): 38.7 µM
TGI (SNB-75 CNS): > 100 µM
GI50 (RXF 393 renal): 34.1 µM
TGI (RXF 393 renal): > 100 µM
GI50 (IGROV1 ovarian): 4.92 µM
TGI (IGROV1 ovarian): 67.4 µM
GI50 (SR leukemia): 0.63 µM
TGI (SR leukemia): 22.3 µM
GI50 (CAKI-1 renal): 4.62 µM
TGI (CAKI-1 renal): > 100 µM
GI50 (NCI-H226 lung): 11.4 µM
TGI (NCI-H226 lung): > 100 µM
GI50 (786-0 renal): 2.02 µM
TGI (786-0 renal): 79.2 µM
GI50 (OVCAR-5 ovarian): > 100 µM
TGI (OVCAR-5 ovarian): > 100 µM
GI50 (HT29 colon): 5.8 µM
TGI (HT29 colon): > 100 µM
GI50 (OVCAR-3 ovarian): 20.3 µM
TGI (OVCAR-3 ovarian): > 100 µM
GI50 (ACHN renal): 4.16 µM
TGI (ACHN renal): > 100 µM
GI50 (A549 NSCLC): 6.08 µM
TGI (A549 NSCLC): > 100 µM
GI50 (K-562 leukemia): 2.96 µM
TGI (K-562 leukemia): > 100 µM
GI50 (MDA-MB-231 breast): 32.4 µM
TGI (MDA-MB-231 breast): > 100 µM
GI50 (NCI-H23 lung): 38.3 µM
TGI (NCI-H23 lung): > 100 µM
GI50 (NCI-H460 lung): 3.28 µM
TGI (NCI-H460 lung): > 100 µM
GI50 (MCF7 breast): 4.13 µM
TGI (MCF7 breast): > 100 µM
GI50 (DU-145 prostate): 9.81 µM
TGI (DU-145 prostate): > 100 µM
GI50 (SK-MEL-2 melanoma): 2.94 µM
TGI (SK-MEL-2 melanoma): 42.8 µM
GI50 (SF-539 CNS): 7.8 µM
TGI (SF-539 CNS): > 100 µM
GI50 (UACC-257 melanoma): 34.4 µM
TGI (UACC-257 melanoma): > 100 µM
GI50 (SF-268 CNS): 5.39 µM
TGI (SF-268 CNS): > 100 µM
GI50 (HCT-15 colon): 15 µM
TGI (HCT-15 colon): > 100 µM
GI50 (UO-31 renal): 3.53 µM
TGI (UO-31 renal): 62.1 µM
GI50 (HCC-2998 colon): 94.3 µM
TGI (HCC-2998 colon): > 100 µM
GI50 (MALME-3M melanoma): 6.32 µM
TGI (MALME-3M melanoma): 71.8 µM
GI50 (HCT-116 colon): 3.49 µM
TGI (HCT-116 colon): > 100 µM
GI50 (SK-MEL-28 melanoma): 32.1 µM
TGI (SK-MEL-28 melanoma): > 100 µM
GI50 (HOP-92 NSCLC): 20.3 µM
TGI (HOP-92 NSCLC): > 100 µM
GI50 (M14 melanoma): 15.1 µM
TGI (M14 melanoma): > 100 µM
GI50 (U251 CNS): 8.68 µM
TGI (U251 CNS): > 100 µM
GI50 (A498 renal): 7.98 µM
TGI (A498 renal): > 100 µM
GI50 (NCI/ADR-RES ovarian): 36 µM
TGI (NCI/ADR-RES ovarian): > 100 µM
GI50 (MDA-MB-435): 12.8 µM
TGI (MDA-MB-435): > 100 µM
GI50 (T-47D breast): 25 µM
TGI (T-47D breast): > 100 µM
GI50 (KM12 colon): 8.26 µM
TGI (KM12 colon): > 100 µM
GI50 (SW-620 colon): 4.07 µM
TGI (SW-620 colon): > 100 µM
GI50 (COLO 205 colon): 6.97 µM
TGI (COLO 205 colon): > 100 µM
GI50 (OVCAR-4 ovarian): 68.5 µM
TGI (OVCAR-4 ovarian): > 100 µM
GI50 (PC-3 prostate): 11.7 µM
TGI (PC-3 prostate): 87.3 µM
GI50 (CCRF-CEM leukemia): 5.15 µM
TGI (CCRF-CEM leukemia): > 100 µM
GI50 (BT-549 breast): 27.6 µM
TGI (BT-549 breast): > 100 µM
GI50 (SK-MEL-5 melanoma): 3.22 µM
TGI (SK-MEL-5 melanoma): > 100 µM
GI50 (HL-60(TB) leukemia): 21.8 µM
TGI (HL-60(TB) leukemia): > 100 µM
GI50 (NCI-H522 lung): 8.07 µM
TGI (NCI-H522 lung): > 100 µM
GI50 (OVCAR-8 ovarian): 6.94 µM
TGI (OVCAR-8 ovarian): > 100 µM
GI50 (EKVX NSCLC): 40.2 µM
TGI (EKVX NSCLC): > 100 µM
GI50 (UACC-62 melanoma): 9.82 µM
TGI (UACC-62 melanoma): > 100 µM
GI50 (TK-10 renal): 31.9 µM
TGI (TK-10 renal): > 100 µM
GI50 (LOX IMVI melanoma): 5.69 µM
TGI (LOX IMVI melanoma): > 100 µM
GI50 (MOLT-4 leukemia): 2.87 µM
TGI (MOLT-4 leukemia): 27.4 µM
